Experiments:
Assay type in all cases: cell-based, chinesische Hamster
CHO-Zellen [1] = test: t-PA production in transformed CHO cells, medium with 7.5% FKS, supernatant, direct chromogenic assay (DCA); settings: for activation at 1 µM / activation at 1000 µM: CHO; for activation at 1 µM: read-out: % Steigerung der t-PA-Synthese; for activation at 1000 µM: read-out: Steigerung der t-PA-Produktion
Text: (§1) Der Vektor für die t-PA-Produktion wurde in einem Subklon, CHO-K1-DUX B11, integriert (Urlaub et al., Proceedings of the National Academy of Science, USA, 77: 4216-4220, 1980). Diese Zell-Linie, eine Dihydrofolat Reduktase negative Mutante (DHFR-), ist für eine DHFR-abhängige Selektion der transfizierten Zellklone geeignet. Der Vektor für die humane c-DNA kann ein bekannter Plasmid-Vektor pBR-322 oder deren Abkömmling von Escherichia coli sein. Die Promotorregion für das in Frage kommende Gen und für das DHFR-Gen stammt aus SV 40 und die Terminationsregion für beide Gene von einem Hepatitis B-Oberflächenantigen. In den Beispielen wurden CHO-K1-DUX B11-Zellen, die durch die Plasmide pETPER oder pEPEFR transformiert sind, verwendet (siehe EP-A 0117059).
(§2) Die Zellkulturen werden bei 37°C in einem Hereaus-Brutschrank inkubiert und mit einem Kohlendioxid-Luftgemisch von 7,5% CO₂ in einer relativen Luftfeuchtigkeit von 100% belüftet. Je nach Verfahrensansatz werden unterschiedliche Kulturgefäße benutzt: Spinnergefäße für 100-1000 ml Medium, Roux-Schalen (Nunc) 175 cm² (70-100 ml Medium), 75 cm² (30-50 ml Medium), 25 cm² (7-10 ml Medium) und Mehrfachkulturschalen von Costar mit 2 cm² für 1 ml Kulturen. Für die Stammhaltung werden die Zellen in einer Dichte von 0,2-0,3 x 10⁶ Zellen/ml eingesetzt und alle 2-3 Tage subkloniert.
(§3) Die Protein-Produktion stimulierenden Substanzen können zu den verschiedenen Zeitpunkten jeweils in einer 1:100 Verdünnung zugegeben werden, d.h. sie wurden zuerst in Medium gelöst oder, wenn sie schwerlöslich sind, erst in Äthylalkohol gelöst und danach in Medium zugesetzt und dann das diese Substanz enthaltende Medium dem zellenthaltenden Medium im Verhältnis 1:100 v/v zugegeben.
(§4) In den folgenden Beispielen wurden, um die Stimulierung der t-PA-Synthese hervorzurufen, Zellen einer exponentiell wachsenden Kultur entnommen und in Plastikröhrchen (Falcon) 10 Min. bei 1000 x g in einer Beckmann T 3-6 Zentrifuge abzentrifugiert. Nach Dekantieren des Überstandes wurde das Zellpellet mit frischem Medium resuspendiert.
(§5) Für die Produktion von t-PA in serumhaltigem Medium wurde als frisches Medium F12/DMEM + 7,5% FKS + Gentamycin verwendet. Die resultierende Suspension kann in 2 cm² 24 Wells-Platten bei einer Zelldichte von 0,2-0,3 x 10⁶ Zellen/ml angesetzt werden.
(§6) Aliquots von Zellüberständen und Zellextrakten wurden zu verschiedenen Zeitpunkten abgenommen bzw. hergestellt. Die Messung der Proben erfolgte entweder sofort oder nach Aufbewahrung bei -20°C mit folgenden Methoden:
Von dem synthetischen Peptidsubstrat S-2288 (D-H-Ile-Pro-Arg-p-Nitroanilin) der Firma Kabi Diagnostica wird durch das t-PA p-Nitroanilin als Reaktionsprodukt gebildet. Die Aktivität von t-PA ist zur Bildung von p-Nitroanilin proportional, die bei […], 37°C, gemessen wird.
Die spektrophotometrische Bestimmung der Enzymkinetik wurde mit einem ACP-5010-Analysengerät der Firma Eppendorf automatisch durchgeführt.
Die Aktivität des Enzyms wurde anhand dieses vorgegebenen Standards berechnet. Eine t-PA-Standardreihe von 1-15 µg/ml wurde mit einem Laborstandard hergestellt, der zu 72% aus 1-kettigem Material besteht.
Die Substratlösung (100 mM Tris/106 mM NaCl) wurde in einer Konzentration von 50 mM eingesetzt.

CHO-Zellen [2] = test: t-PA production in transformed CHO cells, serum-free medium (DCA or determination method not given)
Text: Diese Zell-Linie, eine Dihydrofolat Reduktase negative Mutante (DHFR-), ist für eine DHFR-abhängige Selektion der transfizierten Zellklone geeignet. […] Die Promotorregion für das in Frage kommende Gen und für das DHFR-Gen stammt aus SV 40 und die Terminationsregion für beide Gene von einem Hepatitis B-Oberflächenantigen.
Im folgenden Beispiel wird ein nachseziertes DMEM/Ham's F 12 Medium (1:1) (Gibco) als serumfreies Medium verwendet. Als Zusatz wird fötales Kälberserum (FKS) in einer Konzentration von 7,5% oder 1-2% verwendet.
as §2, §3, §4
(§7) Für die Produktion von t-PA in serumfreiem Medium wurden die Zellen zuvor 3-4 Tage in einem Medium von 1-2% FKS adaptiert, wieder abzentrifugiert und das Zellpellet in serumfreiem Medium resuspendiert und anschließend in 2 cm² 24 Wells-Platten in einer Zelldichte von 0,4-0,5 x 10⁶ Zellen/ml überführt.
as §6
Die Aktivität des Enzyms wurde anhand dieses vorgegebenen Standards berechnet.

CHO-Zellen [3] = test: t-PA production in transformed CHO cells, serum-free medium, ELISA; settings: for activation at 1 µM: CHO, Elisa, 1 ml supernatant vs control (0%), read-out: % Steigerung der t-PA-Synthese
Text: as §1
Als serumfreies Medium stehen verschiedene bekannte Produkte zur Verfügung (siehe z.B. BMFT-Statusseminar 12, 13. November 1985, Bundesministerium für Forschung und Technologie, 5300 Bonn 2, Seite 111-120). Im folgenden Beispiel wird ein nachseziertes DMEM/Ham's F 12 Medium (1:1) (Gibco) als serumfreies Medium verwendet. Als Zusatz wird fötales Kälberserum (FKS) in einer Konzentration von 7,5% oder 1-2% verwendet.
as §2, §3
as §4, with “resuspendiert. […]” for “resuspendiert.”
Mit Hilfe eines ELISA (Enzyme-linked-immuno-sorbent-assay) wurden die t-PA-Proben des Überstandes und des Zellextraktes quantitativ bestimmt. […]

CHO-Zellen [4] = test: Cell growth / cell division of transformed CHO cells
Description: as §2, §5, §7

CHO-Zellen [5] = test: t-PA production in transformed CHO cells, medium and determination method not stated
Text: as §1, §2, §3, §4
Aliquots von Zellüberständen und Zellextrakten wurden zu verschiedenen Zeitpunkten abgenommen bzw. hergestellt. Die Messung der Proben erfolgte entweder sofort oder nach Aufbewahrung bei -20°C mit folgenden Methoden: […]

CHO-Zellen [6] = test: t-PA production in transformed CHO cells, medium with 7.5% FKS, supernatant and cell extract, ELISA; settings: for activation at 1000 µM: CHO
Text: as §1, §2, §3, §4, §5, §6
Mit Hilfe eines ELISA (Enzyme-linked-immuno-sorbent-assay) wurden die t-PA-Proben des Überstandes und des Zellextraktes quantitativ bestimmt. Als Standard diente ein Laborstandard in einer Konzentrationsreihe von 0,038-5 µg/ml. Die Proben wurden 1:10 bis 1:1000 vorverdünnt.

## C[C@@]1(CO)[C@H](O)CC[C@@]2(C)[C@H]1CC[C@H]1C[C@@H]3C[C@@]12CC[C@]3(O)CO [Aphidicolin]
CHO-Zellen [1]; 24 h
  activation at 1 µM: 40.2%
CHO-Zellen [1]; 48 h
  activation at 1 µM: 59.9%
CHO-Zellen [1]; 72 h
  activation at 1 µM: 32.8%
CHO-Zellen [1]; 96 h
  activation at 1 µM: 14.7%
CHO-Zellen [2]; serum-free medium (Abb. 18)
  Maximum des Effekts nach Mediumwechsel: 48 h
CHO-Zellen [3]; Table 13, 1 µM, 144 h after medium change
  activation at 1 µM: 51.3%
CHO-Zellen [3]; Tables 13/14, 1 µM, 96 h after medium change
  activation at 1 µM: 36.7%
CHO-Zellen [3]; Tables 13/14, 1 µM, 120 h after medium change
  activation at 1 µM: 42%
CHO-Zellen [4]; CHO, 1 µM, after 24 h treatment, read-out: Hemmung des Zellwachstums
  inhibition at 1 µM: 5 to 10%
CHO-Zellen [5]; after 24 h, continued incubation with the substance
  t-PA-Ausbeute gesteigert: 44,9 ± 13,9%
CHO-Zellen [5]; during the 24 h incubation with the substance
  intrazelluläre t-PA-Konzentration erhöht: ca. 30%

## CCCC(=O)O [Na-Butyrat]
CHO-Zellen [1]; 48 h, Table 6, 1 mM at each medium change (Applikation Tag 0, 2, 4, 7), Mediumwechsel Tag 2, 1 ml supernatant vs control (0%)
  activation at 1000 µM: 33%
CHO-Zellen [1]; 96 h, Table 6, 1 mM at each medium change (Applikation Tag 0, 2, 4, 7), Mediumwechsel Tag 4, 1 ml supernatant vs control (0%)
  activation at 1000 µM: 107%
CHO-Zellen [1]; 168 h, Table 6, 1 mM at each medium change (Applikation Tag 0, 2, 4, 7), Mediumwechsel Tag 7, 1 ml supernatant vs control (0%)
  activation at 1000 µM: 96.6%
CHO-Zellen [1]; 216 h, Table 6, 1 mM at each medium change (Applikation Tag 0, 2, 4, 7), Mediumwechsel Tag 9, 1 ml supernatant vs control (0%)
  activation at 1000 µM: 62%
CHO-Zellen [1]; DCA, supernatant (Abb. 9B)
  maximaler t-PA-Gehalt: 47,4 ± 7,4 µg t-PA/1 x 10⁶ Zellen
CHO-Zellen [1]; after 24 h, average of DCA and Elisa, vs control
  prozentuale Steigerung im Überstand: 19,2%
CHO-Zellen [1]; day 3, medium with 7,5% FKS (Abb. 7)
  maximale Steigerung der t-PA-Produktion: 37,2 ± 5,1%
CHO-Zellen [6]; 24 h, read-out: Stimulierung der t-PA-Synthese extrazellulär
  activation at 1000 µM: 68.5%
CHO-Zellen [6]; 24 h, read-out: Stimulierung der t-PA-Synthese intrazellulär
  activation at 1000 µM: 90.9%
CHO-Zellen [6]; 48 h, read-out: Stimulierung der t-PA-Synthese extrazellulär
  activation at 1000 µM: 119%
CHO-Zellen [6]; 48 h, read-out: Stimulierung der t-PA-Synthese intrazellulär
  activation at 1000 µM: 99.7%
CHO-Zellen [6]; 72 h, read-out: Stimulierung der t-PA-Synthese extrazellulär
  activation at 1000 µM: 223%
CHO-Zellen [6]; 72 h, read-out: Stimulierung der t-PA-Synthese intrazellulär
  activation at 1000 µM: 93.9%
CHO-Zellen [6]; 96 h, read-out: Stimulierung der t-PA-Synthese extrazellulär
  activation at 1000 µM: 281%
CHO-Zellen [6]; 96 h, read-out: Stimulierung der t-PA-Synthese intrazellulär
  activation at 1000 µM: 210%
CHO-Zellen [6]; Elisa, starting value of the rise during the first 4 days
  t-PA-Konzentration im Überstand: 7,5 ± 1,1 µg t-PA/ 1 x 10⁶ Zellen
CHO-Zellen [6]; Elisa, value reached in the rise during the first 4 days
  t-PA-Konzentration im Überstand: 28,9 ± 5,3 µg t-PA/ 1 x 10⁶ Zellen
CHO-Zellen [6]; after 24 h incubation, vs control (Abb. 8)
  Zunahme des intrazellulären t-PA-Gehaltes: 43,8 ± 9,8%
CHO-Zellen [6]; value from which the content falls (until day 5) (Abb. 9C)
  intrazelluläre t-PA-Gehalt: 1,5 ± 0,2 µg t-PA/1 x 10⁶ Zellen
CHO-Zellen [2]; serum-free medium, 1 day after application
  Steigerung der t-PA-Synthese gegenüber der Kontrolle: 44,1 ± 7,1%
CHO-Zellen [2]; serum-free medium, 3 days after application
  maximale Steigerung: 143,3 ± 12,8%
CHO-Zellen [2]; serum-free medium, 6 days after addition
  Steigerungseffekt: 49,9 ± 7,0%
CHO-Zellen [3]; in 1 µM Aphidicolin-treated cultures, after 96 h
  weitere Steigerung der t-PA-Synthese: 14%

## O=C(O)CS [Thioglykolsäure]
CHO-Zellen [1]; 24 h, Table 9, 1 mM, Zeit 24 h, Applikationstag 0, 7,5% FKS, 1 ml supernatant vs control (0%)
  activation at 1000 µM: 27.6%
CHO-Zellen [1]; 24 h, Table 9, 1 mM, Zeit 24 h, Applikationstag 1, 7,5% FKS, 1 ml supernatant vs control (0%)
  activation at 1000 µM: 34.7%
CHO-Zellen [1]; 24 h, Table 9, 1 mM, Zeit 24 h, Applikationstag 2, 7,5% FKS, 1 ml supernatant vs control (0%)
  activation at 1000 µM: 34.5%
CHO-Zellen [1]; 48 h, Table 9, 1 mM, Zeit 48 h, Applikationstag 0, 7,5% FKS, 1 ml supernatant vs control (0%)
  activation at 1000 µM: 16.9%
CHO-Zellen [1]; 48 h, Table 9, 1 mM, Zeit 48 h, Applikationstag 1, 7,5% FKS, 1 ml supernatant vs control (0%)
  activation at 1000 µM: 17.1%
CHO-Zellen [1]; 48 h, Table 9, 1 mM, Zeit 48 h, Applikationstag 2, 7,5% FKS, 1 ml supernatant vs control (0%)
  activation at 1000 µM: 16.3%
CHO-Zellen [1]; 72 h, Table 9, 1 mM, Zeit 72 h, Applikationstag 0, 7,5% FKS, 1 ml supernatant vs control (0%)
  activation at 1000 µM: 14.7%
CHO-Zellen [1]; 72 h, Table 9, 1 mM, Zeit 72 h, Applikationstag 1, 7,5% FKS, 1 ml supernatant vs control (0%)
  activation at 1000 µM: 10.2%
CHO-Zellen [1]; 72 h, Table 9, 1 mM, Zeit 72 h, Applikationstag 2, 7,5% FKS, 1 ml supernatant vs control (0%)
  activation at 1000 µM: 9.4%
CHO-Zellen [1]; 96 h, Table 9, 1 mM, Zeit 96 h, Applikationstag 0, 7,5% FKS, 1 ml supernatant vs control (0%)
  activation at 1000 µM: 3.4%
CHO-Zellen [1]; 96 h, Table 9, 1 mM, Zeit 96 h, Applikationstag 1, 7,5% FKS, 1 ml supernatant vs control (0%)
  activation at 1000 µM: 2.7%
CHO-Zellen [1]; 96 h, Table 9, 1 mM, Zeit 96 h, Applikationstag 2, 7,5% FKS, 1 ml supernatant vs control (0%)
  activation at 1000 µM: 0.5%
CHO-Zellen [1]; Table 8, 7,5% FKS, bracketed value = concentration of the single sample
  optimaler Dosisbereich: 1 mM
CHO-Zellen [1]; Table 8, mean ± SE, n = 6-19, runs of 3 days, added day 0 to 2, 7,5% FKS, 1 ml supernatant vs control (0%)
  % Steigerung der t-Pa-Synthese Durchschnitt: 31,2 ± 3,2%
CHO-Zellen [1]; Table 8, single sample, 7,5% FKS, 1 ml supernatant vs control (0%)
  % Steigerung der t-Pa-Synthese Maximum: 66,4%
CHO-Zellen [1]; duration of raised production after treatment, independent of application day
  t-PA-Produktion erhöht (Dauer): 72 h
CHO-Zellen [1]; time to maximal effect (Abb. 15)
  Maximalwert des Steigerungseffektes erreicht nach: 24 h
CHO-Zellen [6]; 1 mM, after 24 h (Abb. 17C)
  maximale intrazelluläre t-PA-Konzentration: 1,1 ± 0,1 µg/l x 10⁶ Zellen
CHO-Zellen [6]; 96 h, 1 mM, Elisa, per 1 x 10⁶ cells, day 4 (Abb. 17B), read-out: Steigerungsrate
  activation at 1000 µM: ~35%
CHO-Zellen [4]; serum-free medium
  Hemmung der Zellteilung: 10-20%
CHO-Zellen [5]; day 5, medium not clearly stated
  extrazelluläre t-PA-Konzentration gegenüber der Kontrolle gesteigert: 10,7%
